# Several values for one entry are separate records, joined by “and”; a condition that tells them apart may be missing. Equal values may be shown once. Entries after “also recorded” stand apart in the source; their conditions may differ. Read-outs that look alike come from different tables or passages of the source. Residues, ends and D or L forms follow the SMILES beside them.
# How the values were obtained:
# recombinant TUBB3 = biological target: T1, recombinant TUBB3 (Homo sapiens, UniProt Q13509); assay: SPR (BIACORE T200) binding to immobilized TUBB3; details: for SPR response (2-1) RU, Fc2: Tubulin β-3 1092 RU: 60 sec injection; for Kd: Ligand: TUBB3
# T1 construct: purchased MyBioSource, San Diego, Calif
# Description: (§1) Surface plasmon resonance (SPR). BIACORE® T200™ was used to determine the kinetic parameters for the binding of recombinant TUBB3, tubulin dimer, and assembled microtubules (ligands) to the various isoforms of gp120 or related peptides (analytes). Recombinant TUBB3, tubulin dimer, and assembled MTs were covalently attached to different flow cells of a carboxymethyldextran (CM5) sensor chip by amine coupling. The chip surface was activated for 720 sec at 10 μL/min with of 1:1 mixture of 0.1 M N-Hydroxysuccinimide (NHS) and 0.5 M 1-Ethyl-3-(-3-dimethylaminopropyl)-carbodiimide hydrochloride (EDC). […] After ligand capture, the surfaces were deactivated by injecting 1 M ethanolamine for 720 sec at 10 μL/min. HBS-P (10 mM HEPES, pH7.4, 150 mM NaCl, 0.05% P-20) with 2 mM MgCl2 used as the running buffer. Flow cell 1 on each chip was left empty and used for reference surface. […] Kinetic studies were performed by injecting different concentrations of the analytes in triplicate. The chip surface was regenerated by with 10 mM glycine pH 1.5 injected for 30 sec at a flow rate of 100 μL/min. Each sample was injected for 60 sec (contact time) followed by a dissociation time of 300 sec at a flow rate of 100 μL/min. Data was analyzed with BIACORE® T200™ Evaluation Software (version 1) to determine the equilibrium dissociation constant (KD) from a 1:1 binding model. Binding studies with peptides Helix A and Helix B were done in the same way as described above. Kinetic studies were performed by injecting different concentrations (20 μM, 10 μM, 5 μM, 2.5 μM, 1.25 μM and 0.625 μM) of Helix A and Helix B. Competition experiments with Helix A and Helix B were performed by mixing 100 nM gp120 isoforms with 10 μM of each peptide and injecting over the sensorchip surface.
# (§2) Recombinant TUBB3, tubulin dimer, and assembled MTs from bovine brains were immobilized on a BIACORE® CM5 chip by amine coupling. Different concentrations of gp120s (from 3.13 to 100 nM) were injected over the surface in triplicates in each experiment. The kinetics of interaction was analyzed using a BIACORE® T200™ instrument. BiaEvaluation software was used to calculate binding affinities based on 1:1 binding model.
# rat cortical neurons = assay: Penetration of neuronal membranes (confocal microscopy, transmission electron microscopy); format: cell-based; details: 5 μM, 24 hours, FITC-labeled; listed as Helix-A peptide
# Description: FTIR spectra of Helix-A nano. The gray line highlights the Amide region typical of peptide components. c. […] Representative images obtained by transmission electron microscopy showing unmodified MSN and Helix-A nano in intact and open lysosomes, respectively. Bar=500 nm.
# Primary cortical neurons: Cortical neuronal cultures were prepared from the cortex of embryonic (E17-18) Sprague Dawley rats (Charles River, Mass.). Cells were seeded onto poly-L-lysine pre-coated plates in Neurobasal Medium containing 2% B27 supplement, […] glutamate, 0.5 mM L-glutamine, and 1% antibiotic-antimycotic solution (INVITROGEN®, Carlsbad, Calif.). Cultures were grown at 37° C. in 5% CO2/95% air for 7 days. Cultures contained ˜5% of non-neuronal cells. […]
# Immunocytochemistry of primary neurons: Primary cortical neurons were maintained on glass coverslips for 7 days and fixed in 4% paraformaldehyde/phosphate buffer with 4% sucrose for 20 minutes at room temperature (RT). […] Coverslips were washed with PBS-T and correspondent fluorescence-conjugated secondary antibody (1:2000; INVITROGEN®, CA) were applied for 1 hour at RT. […] Image scale was calibrated and length of MAP-2 positive processes was measured in 10 neurons per field using ImageJ.
# [1] = biological target: T2, gp120 binding to Tubulin β-3 (Homo sapiens, UniProt Q13509); assay: SPR competition: gp120 premixed with Helix peptide injected over TUBB3; details: 60 sec injection
# T2 construct: purchased MyBioSource (TUBB3); Immunodiagnostics Inc, Woburn, Mass; (gp120s)
# Text: (§3) BIACORE® T200™ was used to determine the kinetic parameters for the binding of recombinant TUBB3, tubulin dimer, and assembled MTs to gp120s in the absence and presence of Helix-A peptide. […] Representative data are from one of three independent experiments.
# (§4) Surface plasmon resonance (SPR). BIACORE® T200™ was used to determine the kinetic parameters for the binding of recombinant TUBB3, tubulin dimer, and assembled microtubules (ligands) to the various isoforms of gp120 or related peptides (analytes). Recombinant TUBB3, tubulin dimer, and assembled MTs were covalently attached to different flow cells of a carboxymethyldextran (CM5) sensor chip by amine coupling. The chip surface was activated for 720 sec at 10 μL/min with of 1:1 mixture of 0.1 M N-Hydroxysuccinimide (NHS) and 0.5 M 1-Ethyl-3-(-3-dimethylaminopropyl)-carbodiimide hydrochloride (EDC). […] After ligand capture, the surfaces were deactivated by injecting 1 M ethanolamine for 720 sec at 10 μL/min. HBS-P (10 mM HEPES, pH7.4, 150 mM NaCl, 0.05% P-20) with 2 mM MgCl2 used as the running buffer. Flow cell 1 on each chip was left empty and used for reference surface. TUBB3 (1040 RU), tubulin dimer (2086 RU), and assembled MTs (990 RU) were captured on the remaining 3 flow cells. […] Data was analyzed with BIACORE® T200™ Evaluation Software (version 1) to determine the equilibrium dissociation constant (KD) from a 1:1 binding model. […]
# [2] = tested on: gp120 binding to microtubules; assay: SPR competition: gp120 premixed with Helix peptide injected over microtubules; set-up: species or system Porcine; details: 60 sec injection
# Text: as §3, §4
# assembled MTs = assay: SPR (BIACORE T200) binding to immobilized assembled microtubules; set-up: species or system Porcine; details: 1 uM peptide alone; 60 sec injection
# Description: Surface plasmon resonance (SPR). BIACORE® T200™ was used to determine the kinetic parameters for the binding of recombinant TUBB3, tubulin dimer, and assembled microtubules (ligands) to the various isoforms of gp120 or related peptides (analytes). Recombinant TUBB3, tubulin dimer, and assembled MTs were covalently attached to different flow cells of a carboxymethyldextran (CM5) sensor chip by amine coupling. The chip surface was activated for 720 sec at 10 μL/min with of 1:1 mixture of 0.1 M N-Hydroxysuccinimide (NHS) and 0.5 M 1-Ethyl-3-(-3-dimethylaminopropyl)-carbodiimide hydrochloride (EDC). […] After ligand capture, the surfaces were deactivated by injecting 1 M ethanolamine for 720 sec at 10 μL/min. HBS-P (10 mM HEPES, pH7.4, 150 mM NaCl, 0.05% P-20) with 2 mM MgCl2 used as the running buffer. Flow cell 1 on each chip was left empty and used for reference surface. TUBB3 (1040 RU), tubulin dimer (2086 RU), and assembled MTs (990 RU) were captured on the remaining 3 flow cells. Kinetic studies were performed by injecting different concentrations of the analytes in triplicate. The chip surface was regenerated by with 10 mM glycine pH 1.5 injected for 30 sec at a flow rate of 100 μL/min. Each sample was injected for 60 sec (contact time) followed by a dissociation time of 300 sec at a flow rate of 100 μL/min. Data was analyzed with BIACORE® T200™ Evaluation Software (version 1) to determine the equilibrium dissociation constant (KD) from a 1:1 binding model. Binding studies with peptides Helix A and Helix B were done in the same way as described above. Kinetic studies were performed by injecting different concentrations (20 μM, 10 μM, 5 μM, 2.5 μM, 1.25 μM and 0.625 μM) of Helix A and Helix B. Competition experiments with Helix A and Helix B were performed by mixing 100 nM gp120 isoforms with 10 μM of each peptide and injecting over the sensorchip surface.
# Recombinant TUBB3, tubulin dimer, and assembled MTs from bovine brains were immobilized on a BIACORE® CM5 chip by amine coupling. […] The kinetics of interaction was analyzed using a BIACORE® T200™ instrument. […]
# tubulin dimer = assay: SPR (BIACORE T200) binding to immobilized tubulin dimer; set-up: species or system Porcine; details: 1 uM peptide alone; 60 sec injection
# Description: as §1
# as §2, with “BiaEvaluation software was used to calculate binding affinities based on 1:1 binding model.” left out
# [3] = tested on: gp120 binding to tubulin dimer; assay: SPR competition: gp120 premixed with Helix peptide injected over tubulin dimer; set-up: species or system Porcine; details: 60 sec injection
# Description: BIACORE® T200™ was used to determine the kinetic parameters for the binding of recombinant TUBB3, tubulin dimer, and assembled MTs to gp120s in the absence and presence of Helix-A peptide. Gp120s (100 nM) were injected over the surface alone or as a premix with Helix-A peptides (10 μM). Representative data are from one of three independent experiments.
# as §4, with “surface.” for “surface. TUBB3 (1040 RU), tubulin dimer (2086 RU), and assembled MTs (990 RU) were captured on the remaining 3 flow cells.”
# gp120IIIB = gp120IIIB (Human immunodeficiency virus type 1 group M subtype B, UniProt P04578); details: dot blot, 2 μg peptide spotted, 5 μg gp120IIIB
# Description: Dot blot analysis: CTTs or Helix-A and -B peptides (2 μg each) were spotted on a nitrocellulose membrane and allowed to dry. The membrane was then incubated in blocking buffer (5% BSA in TBST [[…] NaCl, 20 mM Tris-base, pH 7.5, 0.05% TWEEN® 20]) for 2 hours followed by incubation with a solution composed of 5 μg recombinant gp120 (for binding to CTTs) or 5 μg recombinant TUBB3 (for Helix-A and -B) in 20 mL of TBST for 2 hours. The membranes were washed and then incubated with a mouse anti-gp120 antibody (1:1000; Immunodiagnostics, Inc.) or mouse anti-TUBB3 antibody (1:5000; Covance, N.J.) in TBST for 2 hours. Membranes were washed and incubated in goat anti-mouse HP-conjugated secondary antibody (1:20,000; Jackson ImmunoResearch Laboratories, Inc., PA). Visualization of the bands was then accomplished by the addition of PIERCE® SUPERSIGNAL™ West Pico-Stable Peroxidase Solution and Luminol/Enhancer Solution (Pierce Biotechnology, Inc., Rockford, Ill.).
# Several CTTs (see Table 1) synthesized by […]® were used. Peptides (2 μg each) were spotted on a nitrocellulose membrane and incubated with a solution composed of 5 μg of gp120IIIB (Immunodiagnostics) in 20 mL of TBS-TWEEN® 2 hours at RT, followed by incubation with a specific primary antibody (Immunodiagnostics, +4° C., ON). Following incubation with a corresponding HRP-conjugated secondary antibody 1 hour at RT, the immunocomplexes were visualized with chemiluminescence.
# [4] = 100 nM GP120IIIB + 1 uM peptide
# [5] = 100 nM GP120IIIB + 10 uM peptide
# T2 sequence (Q13509 whole entry): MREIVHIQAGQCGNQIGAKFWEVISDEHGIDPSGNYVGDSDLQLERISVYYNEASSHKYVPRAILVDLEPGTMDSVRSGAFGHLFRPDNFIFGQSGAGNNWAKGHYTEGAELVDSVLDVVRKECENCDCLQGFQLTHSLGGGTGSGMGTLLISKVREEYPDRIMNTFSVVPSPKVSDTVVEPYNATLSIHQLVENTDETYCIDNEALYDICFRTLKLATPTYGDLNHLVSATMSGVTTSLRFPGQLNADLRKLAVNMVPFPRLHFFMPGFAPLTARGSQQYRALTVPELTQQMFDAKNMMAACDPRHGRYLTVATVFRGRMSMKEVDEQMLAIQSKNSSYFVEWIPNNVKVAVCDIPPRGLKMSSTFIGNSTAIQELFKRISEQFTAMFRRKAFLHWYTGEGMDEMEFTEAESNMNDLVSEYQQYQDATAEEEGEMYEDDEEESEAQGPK
# T1 sequence (Q13509 whole entry): as above
compound,measurement,setting,value
"gp120MN: HIV envelope protein gp120, strain MN, purchased from Immunodiagnostics","SPR response (2-1) RU, Fc2: Tubulin β-3 1092 RU",recombinant TUBB3; 100 nM gp120 alone,9 RU and 8.8 RU
same,Kd,"recombinant TUBB3; mean of two independent experiments, read-out: Mean KD",740 nM
same,Kd,"recombinant TUBB3; single experiment, gp120 3.13 to 100 nM, 1:1 binding model, read-out: KD",579 nM and 901 nM
CC[C@H](C)[C@H](NC(=O)[C@H](CC(=O)O)NC(=O)[C@H](CCC(=O)O)NC(=O)[C@H](Cc1c[nH]cn1)NC(=O)[C@H](CCSC)NC(=O)[C@H](CCC(N)=O)NC(=O)[C@H](CCC(=O)O)NC(=O)[C@@H](NC(=O)[C@H](CCSC)NC(=O)[C@H](CC(=O)O)NC(=O)[C@@H](N)CC(N)=O)C(C)C)C(=O)N[C@H](C(=O)N[C@@H](CO)C(=O)N[C@@H](CC(C)C)C(=O)N[C@@H](Cc1c[nH]c2ccccc12)C(=O)N[C@@H](CC(=O)O)C(=O)N[C@@H](CCC(N)=O)C(=O)N[C@@H](CO)C(=O)N[C@@H](CC(C)C)C(=O)N[C@@H](CCCCN)C(=O)O)[C@@H](C)CC [Helix A] (H-NDMVEQMHEDIISLWDQSLK-OH; N-terminus and C-terminus assumed),penetration of neuronal cell membrane,rat cortical neurons,could not penetrate; also recorded: not cell-membrane-penetrable
RAKWNNTLKQIASK (listed as Homo sapiens) [Helix B],"SPR response (2-1) RU, Fc2: Tubulin β-3 1092 RU",[1]; [4],33 RU
same,"SPR response (2-1) RU, Fc2: Tubulin β-3 1092 RU",[1]; [5],34 RU and 32 RU
same,"SPR response (4-1) RU, Fc4: Microtubules 970 RU",[2]; [4],16.5 RU
same,"SPR response (4-1) RU, Fc4: Microtubules 970 RU",[2]; [5],19 RU and 20 RU
same,"SPR response (2-1) RU, Fc2: Tubulin β-3 1092 RU",recombinant TUBB3; 10 uM peptide alone,1.1 RU and 1.2 RU
same,"SPR response (4-1) RU, Fc4: Microtubules 970 RU",assembled MTs,N/B
same,"SPR response (3-1) RU, Fc3: Tubulin Dimer 1900 RU",tubulin dimer,0.4 RU and 0.5 RU
same,"SPR response (3-1) RU, Fc3: Tubulin Dimer 1900 RU",[3]; [4],18.5 RU
same,"SPR response (3-1) RU, Fc3: Tubulin Dimer 1900 RU",[3]; [5],20 RU and 18 RU
EDDEEESEA [SEQ ID NO: 13],Binding to gp120,gp120IIIB; listed as tubulin β-3 (TUBB3),potential binding partners
EGEGEEEGE [SEQ ID NO: 5],Binding to gp120,gp120IIIB,YES
same,Binding to gp120,gp120IIIB; listed as tubulin-α1A/1B Δ2,potential binding partners
